Data from PubChem BioAssay (NCI).
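Tested at 5 concentrations; 48 h exposure; 96-well plates; endpoints linearly interpolated, else capped at highest concentration. TGI is the concentration that stops growth completely.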

How the values were obtained:
Assay in all cases: NCI tumour cell line growth inhibition, 48 h
[1] = test system: EKVX NSCLC
[2] = test system: CCRF-CEM leukemia
[3] = test system: SR leukemia
[4] = test system: OVCAR-5 ovarian
[5] = test system: TK-10 renal
[6] = test system: NCI-H460 lung
[7] = test system: U251 CNS
[8] = test system: MOLT-4 leukemia
[9] = test system: SW-620 colon
[10] = test system: SNB-78 CNS
[11] = test system: SK-MEL-2 melanoma
[12] = test system: CAKI-1 renal
[13] = test system: LXFL 529 NSCLC
[14] = test system: 786-0 renal
[15] = test system: OVCAR-8 ovarian
[16] = test system: SNB-75 CNS
[17] = test system: KM20L2 colon
[18] = test system: HOP-62 NSCLC
[19] = test system: UO-31 renal
[20] = test system: HCC-2998 colon
[21] = test system: RPMI-8226 leukemia
[22] = test system: NCI-H226 lung
[23] = test system: SNB-19 CNS
[24] = test system: OVCAR-4 ovarian
[25] = test system: IGROV1 ovarian
[26] = test system: M19-MEL melanoma
[27] = test system: OVCAR-3 ovarian
[28] = test system: KM12 colon
[29] = test system: HCT-15 colon
[30] = test system: HOP-18 NSCLC
[31] = test system: ACHN renal
[32] = test system: RXF-631 renal
[33] = test system: DLD-1 colon
[34] = test system: UACC-62 melanoma
[35] = test system: SF-268 CNS
[36] = test system: SF-539 CNS
[37] = test system: DMS 114 small cell lung
[38] = test system: HCT-116 colon
[39] = test system: SK-OV-3 ovarian
[40] = test system: LOX IMVI melanoma
[41] = test system: UACC-257 melanoma
[42] = test system: A549 NSCLC
[43] = test system: SK-MEL-5 melanoma
[44] = test system: MALME-3M melanoma
[45] = test system: HT29 colon
[46] = test system: XF 498 CNS
[47] = test system: M14 melanoma
[48] = test system: NCI-H23 lung
[49] = test system: COLO 205 colon
[50] = test system: SF-295 CNS
[51] = test system: SN12C renal
[52] = test system: HOP-92 NSCLC
[53] = test system: HL-60(TB) leukemia
[54] = test system: K-562 leukemia
[55] = test system: SK-MEL-28 melanoma
[56] = test system: RXF 393 renal
[57] = test system: A498 renal
[58] = test system: NCI-H522 lung
[59] = test system: DMS 273 small cell lung

Measured: TGI

C[P+](C)(C)C
not listed: [57] | [58] | [59]
> 100 µM: all other assays above

N#Cc1c(-c2ccccc2)cc(-c2ccc(N)cc2)[nH]c1=O
not listed: [11] | [12] | [46]
> 100 µM: all other assays above
